Common to all, as to experiment: NCI-60 cell line screen, 48 h
Assay [1] concerns UACC-257.
Assay [2] relates to SNB-75.
In assay [3] the test system is SK-MEL-5.
Assay [4] has as its system KM12.
The subject of assay [5] is MDA-MB-435.
Assay [6] relates to MOLT-4.
For assay [7], the system named is NCI-H23.
For assay [8], the system named is SR.
The subject of assay [9] is MDA-MB-231.
Assay [10] deals with SW-620.
Assay [11] deals with CCRF-CEM.
In assay [12] the test system is Malme-3M.
Assay [13] deals with NCI-H522.
Assay [14] concerns LOX IMVI.
The subject of assay [15] is MDA-N.
Assay [16] deals with HCT-116.
Assay [17] concerns BT-549.
The subject of assay [18] is OVCAR-8.
Assay [19] concerns SNB-19.
Assay [20] relates to ACHN.

Molecules are shown by their SMILES. Where “and” joins values, the source holds several entries; their conditions need not be identical. Equal entries are not always repeated.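 Tested at 5 concentrations; 48 h exposure; 96-well plates; endpoints linearly interpolated, else capped at highest concentration. At the GI50, growth is halved.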 Calls of active or inactive are those of the source. No stated cut-off is given here; in the data, active = GI50 up to about 1.1 µM and inactive = higher. Bounds are passed on as bounds.

In the case of `CN1CCc2cc(N)cc3c2C1Cc1ccc(O)c(O)c1-3` (stereo not given), the GI50 in assay [1] is 16.3 µM (inactive); in assay [2], 40.9 µM (inactive); in assay [3] it was 20.4 µM (inactive); in assay [4] it was 33.4 µM (inactive); in assay [5], 36.8 µM (inactive); in [6], 3.92 µM (inactive). Besides, the GI50 in assay [7] is 46.8 µM (inactive); in assay [8], 28.4 µM (inactive); in assay [9], 75 µM (inactive); in assay [10] it was 31.8 µM (inactive); in [11], 3.75 µM (inactive); in assay [12], 37.8 µM (inactive). Also, the GI50 is 27.2 µM (inactive) in assay [13]; 18.6 µM (inactive) in assay [14]; 34.7 µM (inactive) in assay [15]; 32.2 µM (inactive) in [16]; 58.2 µM (inactive) in assay [17]; 30.7 µM (inactive) in assay [18]. Besides, the values for the GI50 in assay [19] and in [20] were 46.6 µM (inactive) and 25.8 µM (inactive), respectively.

For the compound `CC(/C=N/N(C)C1=NCCCCN1)=N/N(C)C1=NCCCCN1`, the GI50 in assay [1], in [2], in assay [3], in assay [4], in assay [5] and in [6] was > 100 µM (inactive) each time. In addition, the GI50 in [7], in assay [8], in [9], in assay [10], in assay [11] and in [12] was > 100 µM (inactive) throughout. Moreover, the GI50 in assay [13], in assay [14], in assay [15], in [16], in [17] and in assay [18] was > 100 µM (inactive) in each case. Moreover, the GI50 in [19] and in assay [20] was > 100 µM (inactive) throughout.

`CCCCCCCCCCCC(=O)OC[C@@H](C[As](=O)(O)O)OC(=O)CCCCCCCCCCC`: the GI50 in assay [1] is 16.4 µM (inactive); in assay [2], 3.82 µM (inactive); in assay [3], 1.82 µM (inactive); in [4], 5.02 µM (inactive); in assay [5], 3.85 µM (inactive); in [6], 5.51 µM (inactive). Further, the GI50 is 5.69 µM (inactive) in assay [7]; 7.36 µM (inactive) in assay [8]; 3.52 µM (inactive) in assay [9]; 15 µM (inactive) in assay [10]; 16.2 µM (inactive) in assay [11]; 3.41 µM (inactive) in assay [12]. In addition, the GI50 in assay [13] is 2.47 µM (inactive); in assay [14], 4.24 µM (inactive); in [15] it was 4.29 µM (inactive); in [16], 8.45 µM (inactive); in assay [17], 3.48 µM (inactive); in assay [18], 9.98 µM (inactive). Also, the results for the GI50 in [19] and in [20] were 3.07 µM (inactive) and 3.01 µM (inactive), respectively.

In the case of `COC(=O)C1CCOC(C)N1C(=O)OC(C)(C)C` (stereo not given), the GI50 in [1], in assay [2], in assay [3], in [4], in assay [5] and in assay [6] was > 100 µM (inactive) each time. For the same compound, the GI50 in assay [7], in assay [8], in assay [9], in assay [10], in assay [11] and in assay [12] was > 100 µM (inactive) each time. The GI50 in assay [13], in [14], in assay [15], in assay [16], in assay [17] and in assay [18] was > 100 µM (inactive) throughout. Besides, the GI50 in assay [19] and in [20] was > 100 µM (inactive) in each case.

Take `COc1ccc(/C=C2/N/C(=N\N=C/C(O)C(O)C(O)C(O)CO)NC2=O)cc1` (stereo not given): the GI50 is > 100 µM (inactive) in assay [1]; > 100 µM (inactive) in assay [2]; > 100 µM (inactive) in assay [3]; > 100 µM (inactive) in assay [4]; > 100 µM (inactive) in assay [5]; > 10 µM (inactive) in assay [6]. Also, the GI50 in [7] was > 100 µM (inactive); in assay [8], > 100 µM (inactive); in assay [9] it was > 100 µM (inactive); in [10], > 100 µM (inactive); in assay [11] it was 53.8 µM (inactive); in assay [12], > 100 µM (inactive). Moreover, the GI50 in assay [13] was > 100 µM (inactive); in assay [14], > 100 µM (inactive); in assay [15] it was > 100 µM (inactive); in assay [16], > 100 µM (inactive); in assay [17], 82.4 µM (inactive) and 65.6 µM (inactive); in assay [18], > 100 µM (inactive). Also, the GI50 in assay [19] and in assay [20] was > 100 µM (inactive) each time.

For `COc1ccc(/N=C(Nc2ccc(OC)cc2)/C(=N/c2ccc(OC)cc2)Nc2ccc(OC)cc2)cc1`, the GI50 in assay [1] is > 100 µM (inactive); in assay [2], 1.95 µM (inactive); in assay [3] it was > 100 µM (inactive); in [4], 14.7 µM (inactive); in assay [5] it was > 100 µM (inactive); in assay [6], 4.25 µM (inactive). Besides, the GI50 is > 100 µM (inactive) in assay [7]; 48.2 µM (inactive) in [8]; > 100 µM (inactive) in [9]; > 100 µM (inactive) in [10]; 36 µM (inactive) in assay [11]; > 100 µM (inactive) in assay [12]. The GI50 in [13], in assay [14], in [15], in [16], in assay [17] and in assay [18] was > 100 µM (inactive) in each case. Moreover, the GI50 in assay [19] and in [20] was > 100 µM (inactive) each time.

As for `C[N+]1=C2[B-](C(C)(C)C)=[N+](C(C)(C)C)[B-]2(C(C)(C)C)[N+](C)=C2[B-](C(C)(C)C)=[N+](C(C)(C)C)[B-]21C(C)(C)C` (stereo not given), the GI50 in assay [1], in assay [2], in assay [3], in assay [4], in assay [5] and in assay [6] was > 100 µM (inactive) each time. The GI50 in [7], in assay [8], in assay [9], in [10], in assay [11] and in assay [12] was > 100 µM (inactive) each time. In addition, the GI50 in assay [13], in [14], in [15], in assay [16], in assay [17] and in assay [18] was > 100 µM (inactive) in each case. The GI50 in assay [19] and in assay [20] was > 100 µM (inactive) throughout.

As to `C/C(=N/NC(=S)Nc1cccc(Cl)c1)c1cccc(/C(C)=N\NC(=S)Nc2cccc(Cl)c2)n1`, the GI50 was 4.66 µM (inactive) in [1]; 2.58 µM (inactive) in [2]; 2.03 µM (inactive) in assay [3]; 3.52 µM (inactive) in assay [4]; 6.87 µM (inactive) in assay [5]; 2.69 µM (inactive) in [6]. Moreover, the GI50 in [7] was 3.69 µM (inactive); in assay [8], 0.828 µM (active); in [9] it was 2.69 µM (inactive); in assay [10], 3.25 µM (inactive); in assay [11], 1.28 µM (inactive); in assay [12], 1.43 µM (inactive). The GI50 is 3.03 µM (inactive) in assay [13]; 1.84 µM (inactive) in [14]; 20.2 µM (inactive) in assay [15]; 2.4 µM (inactive) in assay [16]; 0.94 µM (active) in assay [17]; 0.902 µM (active) in assay [18]. Moreover, the GI50 is 19.4 µM (inactive) in [19] and 0.813 µM (active) in assay [20].

In the case of `CC(=O)Nc1nc(C)c(S(=O)(=O)NC(=O)NC2NC(=O)NC2=O)s1` (stereo not given), the GI50 in [1], in assay [2], in [3], in assay [4], in [5] and in assay [6] was > 100 µM (inactive) throughout. Besides, the GI50 in assay [7], in assay [8], in [9], in assay [10], in [11] and in assay [12] was > 100 µM (inactive) in each case. Also, the GI50 in assay [13], in [14], in assay [15], in [16], in [17] and in assay [18] was > 100 µM (inactive) throughout. In addition, the GI50 in assay [19] and in assay [20] was > 100 µM (inactive) each time.

On to `CCCCCCCCC/C=C1\CC(CO)(COC(=O)C2CCCCC2)OC1=O` (stereo not given), for which the GI50 was 27.4 µM (inactive) in assay [1]; 15.8 µM (inactive) in assay [2]; 11.8 µM (inactive) in assay [3]; 20.4 µM (inactive) in [4]; 13.5 µM (inactive) in [5]; 21.7 µM (inactive) in [6]. The GI50 in [7] was 22.9 µM (inactive); in assay [8] it was 32.4 µM (inactive); in assay [9] it was 19.7 µM (inactive); in assay [10], 18.4 µM (inactive); in assay [11] it was 12.9 µM (inactive); in assay [12], 15.2 µM (inactive). Also, the GI50 in assay [13] is 18.3 µM (inactive); in assay [14], 11.8 µM (inactive); in assay [15], 16.7 µM (inactive); in assay [16] it was 23 µM (inactive); in assay [17], 18.4 µM (inactive); in [18], 15.8 µM (inactive). Moreover, the GI50 in assay [19] was 21.8 µM (inactive); in [20] it was 20 µM (inactive).
